Assay results published in PubChem BioAssay AID1963835 (Molecular Pharmacology Branch, DTP, NCI, 2024).

Tested on: 699152-130-R-J1-PDC complex spheroid viability
Test: Anticancer human tumor 699152-130-R-J1-PDC patient-derived pancreatic carcinoma cell line growth inhibition [POLQ]
Conditions: for IC50: curve of first compound; for viability, T/C: stronger effect = lower value
Outline: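 Growth inhibition in 3D: complex spheroids (tumor PDC, HUVEC, MSC) treated with POLQ inhibitor combinations; where Cmax unknown, highest tested concentration 10 microM, except SN-38 at 1 microM.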

[1] = second compound 0.0316 µM, first compound 0.0316 µM
[2] = second compound 0.0316 µM, first compound 0.1 µM
[3] = second compound 0.0316 µM, first compound 0.316 µM
[4] = second compound 0.0316 µM, first compound 1 µM
[5] = second compound 0.0316 µM, first compound 3.16 µM
[6] = second compound 0.0316 µM, first compound 10 µM
[7] = second compound 0.1 µM, first compound 0.0316 µM
[8] = second compound 0.1 µM, first compound 0.1 µM
[9] = second compound 0.1 µM, first compound 0.316 µM
[10] = second compound 0.1 µM, first compound 1 µM
[11] = second compound 0.1 µM, first compound 3.16 µM
[12] = second compound 0.1 µM, first compound 10 µM
[13] = second compound 0.316 µM, first compound 0.0316 µM
[14] = second compound 0.316 µM, first compound 0.1 µM
[15] = second compound 0.316 µM, first compound 0.316 µM
[16] = second compound 0.316 µM, first compound 1 µM
[17] = second compound 0.316 µM, first compound 3.16 µM
[18] = second compound 0.316 µM, first compound 10 µM
[19] = second compound 1 µM, first compound 0.0316 µM
[20] = second compound 1 µM, first compound 0.1 µM
[21] = second compound 1 µM, first compound 0.316 µM
[22] = second compound 1 µM, first compound 1 µM
[23] = second compound 1 µM, first compound 3.16 µM
[24] = second compound 1 µM, first compound 10 µM
[25] = second compound 3.16 µM, first compound 0.0316 µM
[26] = second compound 3.16 µM, first compound 0.1 µM
[27] = second compound 3.16 µM, first compound 0.316 µM
[28] = second compound 3.16 µM, first compound 1 µM
[29] = second compound 3.16 µM, first compound 3.16 µM
[30] = second compound 3.16 µM, first compound 10 µM
[31] = second compound 10 µM, first compound 0.0316 µM
[32] = second compound 10 µM, first compound 0.1 µM
[33] = second compound 10 µM, first compound 0.316 µM
[34] = second compound 10 µM, first compound 1 µM
[35] = second compound 10 µM, first compound 3.16 µM
[36] = second compound 10 µM, first compound 10 µM
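Further: spheroids exposed to agents for 7 days before viability reading.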
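Wherever viability, T/C is given: percent of DMSO vehicle control viability so 100% = vehicle and 0% = no viable signal.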

With `C#Cc1c(F)ccc2cc(O)cc(-c3ncc4c(N5CC6CCC(C5)N6)nc(OCC56CCCN5CC(F)C6)nc4c3F)c12` (stereo not drawn) + Cc1cccc(N(C)C(=O)C2C(O)CCN2c2nc(C)cc(C(F)(F)F)c2C#N)c1 the IC50 (second compound 0.0316 µM) was less than 0.0316 µM, the IC50 (second compound 0.1 µM) was less than 0.0316 µM and the IC50 (second compound 0.316 µM) was less than 0.0316 µM. It also gave an IC50 (second compound 1 µM) of less than 0.0316 µM, an IC50 (second compound 3.16 µM) of less than 0.0316 µM and an IC50 (second compound 10 µM) of less than 0.0316 µM. For the same compound, the viability, T/C [1] was 27.9%, the viability, T/C [2] was 17.8% and the viability, T/C [3] was 22.6%. For the same compound, the viability, T/C [4] was 13.8%, the viability, T/C [5] was 12.4% and the viability, T/C [6] was 12.1%. The viability, T/C [7] was 25.5%, the viability, T/C [8] was 16.7% and the viability, T/C [9] was 15.5%. For the same compound, the viability, T/C [10] was 13.2%, the viability, T/C [11] was 13.8% and the viability, T/C [12] was 13.1%. It also gave a viability, T/C [13] of 26.9%, a viability, T/C [14] of 18.4% and a viability, T/C [15] of 14.5%. It also gave a viability, T/C [16] of 13.8%, a viability, T/C [17] of 14.6% and a viability, T/C [18] of 12.4%. For the same compound, the viability, T/C [19] was 21.9%, the viability, T/C [20] was 20.6% and the viability, T/C [21] was 15.3%. It also gave a viability, T/C [22] of 13.2%, a viability, T/C [23] of 15.1% and a viability, T/C [24] of 13.8%. It also gave a viability, T/C [25] of 22.9%, a viability, T/C [26] of 17.1% and a viability, T/C [27] of 17.4%. It also gave a viability, T/C [28] of 16.5%, a viability, T/C [29] of 15.2% and a viability, T/C [30] of 12.8%. For the same compound, the viability, T/C [31] was 21.5%, the viability, T/C [32] was 18.4% and the viability, T/C [33] was 17.1%. For the same compound, the viability, T/C [34] was 14.3%, the viability, T/C [35] was 13.4% and the viability, T/C [36] was 15.3%.

With `C=CC(=O)N1CCN(c2nc(=O)n(-c3c(C)ccnc3C(C)C)c3nc(-c4c(O)cccc4F)c(F)cc23)C(C)C1` (stereo not drawn) + Cc1cccc(N(C)C(=O)C2C(O)CCN2c2nc(C)cc(C(F)(F)F)c2C#N)c1 the IC50 (second compound 0.0316 µM) was greater than 10 µM, the IC50 (second compound 0.1 µM) was greater than 10 µM and the IC50 (second compound 0.316 µM) was greater than 10 µM. It also gave an IC50 (second compound 1 µM) greater than 10 µM, an IC50 (second compound 3.16 µM) greater than 10 µM and an IC50 (second compound 10 µM) greater than 10 µM. It also gave a viability, T/C [1] of 92.9%, a viability, T/C [2] of 99.6% and a viability, T/C [3] of 102%. For the same compound, the viability, T/C [4] was 110%, the viability, T/C [5] was 113% and the viability, T/C [6] was 115%. It also gave a viability, T/C [7] of 102%, a viability, T/C [8] of 89.4% and a viability, T/C [9] of 113%. For the same compound, the viability, T/C [10] was 93.8%, the viability, T/C [11] was 119% and the viability, T/C [12] was 105%. The viability, T/C [13] was 99.9%, the viability, T/C [14] was 103% and the viability, T/C [15] was 103%. It also gave a viability, T/C [16] of 103%, a viability, T/C [17] of 114% and a viability, T/C [18] of 110%. It also gave a viability, T/C [19] of 108%, a viability, T/C [20] of 89.7% and a viability, T/C [21] of 102%. The viability, T/C [22] was 113%, the viability, T/C [23] was 108% and the viability, T/C [24] was 109%. The viability, T/C [25] was 92.2%, the viability, T/C [26] was 91.3% and the viability, T/C [27] was 98.8%. For the same compound, the viability, T/C [28] was 105%, the viability, T/C [29] was 114% and the viability, T/C [30] was 104%. For the same compound, the viability, T/C [31] was 103%, the viability, T/C [32] was 104% and the viability, T/C [33] was 108%. It also gave a viability, T/C [34] of 109%, a viability, T/C [35] of 120% and a viability, T/C [36] of 119%.

`CC(C)n1c(=O)n(C)c2cnc3cc(F)c(-c4ccc(OCCCN5CCCCC5)nc4)cc3c21` + Cc1cccc(N(C)C(=O)C2C(O)CCN2c2nc(C)cc(C(F)(F)F)c2C#N)c1 was tested, and the IC50 (second compound 0.0316 µM) was greater than 10 µM, the IC50 (second compound 0.1 µM) was greater than 10 µM and the IC50 (second compound 0.316 µM) was greater than 10 µM. For the same compound, the IC50 (second compound 1 µM) was greater than 10 µM, the IC50 (second compound 3.16 µM) was greater than 10 µM and the IC50 (second compound 10 µM) was greater than 10 µM. It also gave a viability, T/C [1] of 94.9%, a viability, T/C [2] of 98.5% and a viability, T/C [3] of 100%. The viability, T/C [4] was 110%, the viability, T/C [5] was 107% and the viability, T/C [6] was 83.2%. For the same compound, the viability, T/C [7] was 97.3%, the viability, T/C [8] was 101% and the viability, T/C [9] was 112%. For the same compound, the viability, T/C [10] was 109%, the viability, T/C [11] was 104% and the viability, T/C [12] was 98.3%. For the same compound, the viability, T/C [13] was 111%, the viability, T/C [14] was 94.2% and the viability, T/C [15] was 104%. For the same compound, the viability, T/C [16] was 118%, the viability, T/C [17] was 114% and the viability, T/C [18] was 94.8%. It also gave a viability, T/C [19] of 113%, a viability, T/C [20] of 116% and a viability, T/C [21] of 98.7%. It also gave a viability, T/C [22] of 121%, a viability, T/C [23] of 113% and a viability, T/C [24] of 87.3%. The viability, T/C [25] was 104%, the viability, T/C [26] was 116% and the viability, T/C [27] was 103%. The viability, T/C [28] was 104%, the viability, T/C [29] was 112% and the viability, T/C [30] was 78.7%. The viability, T/C [31] was 98.1%, the viability, T/C [32] was 84.4% and the viability, T/C [33] was 123%. It also gave a viability, T/C [34] of 111%, a viability, T/C [35] of 106% and a viability, T/C [36] of 84.7%.

In the case of `CCc1cc2c(N3CCc4c(cc(Cn5ccnc5)cc4-c4cn(C)nc4C(F)(F)F)C3=O)cc(C)nc2c(OC)n1` + Cc1cccc(N(C)C(=O)C2C(O)CCN2c2nc(C)cc(C(F)(F)F)c2C#N)c1, the IC50 (second compound 0.0316 µM) is reported as greater than 10 µM, the IC50 (second compound 0.1 µM) is reported as greater than 10 µM and the IC50 (second compound 0.316 µM) is reported as greater than 10 µM. It also gave an IC50 (second compound 1 µM) greater than 10 µM, an IC50 (second compound 3.16 µM) greater than 10 µM and an IC50 (second compound 10 µM) greater than 10 µM. It also gave a viability, T/C [1] of 88%, a viability, T/C [2] of 96.5% and a viability, T/C [3] of 89.3%. The viability, T/C [4] was 94.1%, the viability, T/C [5] was 92.9% and the viability, T/C [6] was 102%. It also gave a viability, T/C [7] of 90.8%, a viability, T/C [8] of 93.2% and a viability, T/C [9] of 95.4%. For the same compound, the viability, T/C [10] was 97.1%, the viability, T/C [11] was 91.1% and the viability, T/C [12] was 98%. For the same compound, the viability, T/C [13] was 94.3%, the viability, T/C [14] was 94.5% and the viability, T/C [15] was 96.9%. The viability, T/C [16] was 103%, the viability, T/C [17] was 93.8% and the viability, T/C [18] was 99.8%. It also gave a viability, T/C [19] of 97.1%, a viability, T/C [20] of 89.5% and a viability, T/C [21] of 98.8%. For the same compound, the viability, T/C [22] was 94%, the viability, T/C [23] was 91.9% and the viability, T/C [24] was 88.7%. It also gave a viability, T/C [25] of 104%, a viability, T/C [26] of 100% and a viability, T/C [27] of 92.2%. For the same compound, the viability, T/C [28] was 90.5%, the viability, T/C [29] was 101% and the viability, T/C [30] was 96.9%. It also gave a viability, T/C [31] of 84.8%, a viability, T/C [32] of 93.5% and a viability, T/C [33] of 94.5%. For the same compound, the viability, T/C [34] was 96.1%, the viability, T/C [35] was 86% and the viability, T/C [36] was 89.8%.
